Biological target: α-glucosidase
Assay: p-NPG hydrolysis assay with commercial enzyme (Sigma-Aldrich), absorbance at […] nm
Type: biochemical

α-Glucosidase Inhibitory Activity IC50 (μg/mL), ±SD: 87.55 ± 2.23 µg/mL
Compound: Oc1cc(O)c2c(c1)O[C@H](c1ccc(O)c(O)c1)[C@@H](O)C2 [Catechin]

Reference: PMC6027464, “Separation, Identification, and Antidiabetic Activity of Catechin Isolated from Arbutus unedo L. Plant Roots” (Plants, 2018)
